We go through five compounds from patent US11458144B1, “Methods for using 5-HMF analogs with increased solubility to inhibit or reverse RBC sickling” (King Abdulaziz University, priority 2021, dated 2022).

Molecules are shown by their SMILES.

Data set [1] has as its target T1, Hb (Homo sapiens, UniProt P68871+P69905, E7V).
T1 construct: Using homozygous sickle (SS) blood from patients; endogenous in cells; host or cells: red blood cells of homozygous SS patient blood (hematocrit 20%); clarified lysates measured after incubation
The experiment in a line: Hb adduct formation (Hb modification) by cation-exchange HPLC, SS blood lysates. The class given is binding. The following applies: SS RBCs. The text has this: (§1) The effect of the MMA compounds and positive control 5-HMF on RBC sickling, Hb modification, and Hb oxygen equilibrium was studied utilizing SS blood following previous procedure.^[27]
The Hb adduct formation study also used clarified lysates that were subjected to a cation-exchange HPLC (Hitachi D-7000 Series, Hitachi Instruments, Inc., San Jose, Calif.), and a weak cation-exchange column (Poly CAT A: 30 mm×4.6 mm, Poly LC, Inc., Columbia, Md.).
(§2) Using homozygous sickle (SS) blood from patients, the MMA compounds (MMA502, MMA503, MMA504, MMA505, and MMA509 were tested with 5-HMF as control for Hb adduct formation, effect on Hb affinity for oxygen and corresponding antisickling activities (RBC morphology study) using previously published protocols.^14,15

The target of data set [2] is T1, Hb. Kind of data set: Oxygen equilibrium study (P50 shift) of lysates from SS blood, Hemox Analyzer. The class given is cell-based. The following applies: SS RBCs. The protocol: as §1
For the oxygen equilibrium study, about 100 μL aliquot of clarified lysate of residual samples from the above antisickling study was added to 4 mL of 0.1 M potassium phosphate buffer, pH 7.0, in cuvettes and subjected to hemoximetry analysis using Hemox™ Analyzer (TCS Scientific Corp., New Hope, Pa.) to assess P50 shift, which is the partial pressure of oxygen (PO2) at which 50% of Hb is saturated with oxygen (SO2). Degree of Hb O2 affinity shift (ΔP50) was expressed as percentage fractions of control DMSO-treated samples.
as §2

For data set [3], the system named is SS RBCs. Kind of data set: Antisickling study (RBC morphology) in SS blood under hypoxia. The class given is cell-based, human. The conditions noted are these: 2 mM; for antisickling activity relative to 5-HMF: over 5-HMF; for inhibition at 2000 µM: Homo sapiens, SS blood hematocrit 20%, 2.5% O2, 37° C., read-out: % Sickling inhibition. As for the experimental part:
as §1
For the antisickling study, SS blood (hematocrit 20%) were incubated under air in the absence or presence of all the MMA compounds (0.5 mM, 1 mM and 2 mM) at 37° C. for 1 h, followed by incubating the mixture under hypoxic conditions (2.5% O2) at 37° C. for 2 h. Aliquots with fixed 2% glutaraldehyde solution and under anaerobic condition were subjected to microscopic morphological analysis.^[11]
as §2

Data set [4] deals with T2, HbA (Homo sapiens, UniProt P68871+P69905).
T2 construct: time-dependent P50-shift of HbA in normal blood (20% hematocrit); endogenous in cells; host or cells: red blood cells in normal whole blood of adult donors (hematocrit 20%)
The experiment in a line: Time-dependent Hb oxygen equilibrium study in normal whole blood. The class given is cell-based. The conditions noted are these: 2 mM, 20% hematocrit. The protocol: The time-dependent effect of the MMA compounds and positive control 5-HMF on Hb oxygen affinity was studied using normal blood following previous procedure.^[15] Briefly, normal blood samples (hematocrit 20%) were incubated with the compounds at 37° C. for 24 h. Aliquots were taken at various time points and incubated in IL 237 tonometers (Instrumentation Laboratories, Inc. Lexington, Mass.) for 10 minutes at 37° C., and allowed to equilibrate at oxygen tensions 6, 20, and 40 mmHg. The samples were then aspirated into an ABL 700 Automated Blood Gas Analyzer (Radiometer) to determine the pH, partial pressure of CO2 (pCO2), partial pressure of oxygen (pO2), and Hb oxygen saturation values (SO2). The measured values of pO2 (mmHg) and SO2 at each pO2 value were then subjected to a non-linear regression analysis using the program Scientist (Micromath, Salt Lake City, Utah) to estimate P50 as previously reported.^[28]
5-HMF has a short half-life and poor oral bioavailability due to this metabolic instability, which in part prevented its development for chronic use. Nonetheless, this metabolic instability could be advantageous for parenteral formulation for acute use. […] Briefly, blood samples (hematocrit 20%) were incubated with the compounds at 37° C. for 24 h, and aliquots were taken at the various time points and used to determine the PO2 and SO2 using ABL 800 Automated Blood Gas Analyzer (Radiometer), and to estimate P50 as previously reported.^[10]
The study confirmed the trend in the biological potencies observed with SS blood.

Data set [5] concerns human cytochrome P450 (CYP) enzymes. The experiment in a line: In vitro CYP inhibition, panel of seven enzymes (overall statement). The class given is in vitro ADME. The conditions noted are these: 0.1 to 100 μM; pooled human liver microsomes. As for the experimental part: The probe substrates include tacrine (CYP1A2), amodiaquine (CYP2C8), tolbutamide (CYP2C9), mephenytoin (CYP2C19), dextromethorphan (CYP2D6), midazolam (CYP3A4), testosterone (CYP3A4), and bupropion (CYP2B6). […] The assays were performed in duplicate in 96-well plates at 37° C. for 10-60 minutes. The reaction was terminated with addition of methanol, followed by incubation at 4° C. for 10 min and centrifuged at 4° C. for 10 min.

On to `O=Cc1ccc(C(F)F)o1` [MMA-502, 5-(difluoromethyl)furan-2-carbaldehyde], for which the “% Hb-modification (adduct formation)” value in data set [1] (0.5 mM) came to 9.6 ± 0.0%; in data set [1] (1 mM), 20.4 ± 6.6%; in data set [1] (2 mM, listed as 502), 42.4 ± 10.9%; in data set [1] (2 mM, listed as MMA502) it was 42%. Moreover, the “% Hb-O2 affinity (P50 shift vs DMSO control)” value in data set [2] (0.5 mM) is on record as 14.2 ± 3.4%; in data set [2] (1 mM), 8.8 ± 0.5%; in data set [2] (2 mM, listed as 502), 31.5 ± 12.7%; in data set [2] (2 mM, listed as MMA502), 32%. Further, the “antisickling activity relative to 5-HMF” value in data set [3] is reported as about 2.5 fold.
For `O=Cc1ccc(-c2ccn[nH]2)o1` [MMA-503, 5-(1H-pyrazol-5-yl)furan-2-carbaldehyde], the “% Hb-modification (adduct formation)” value is 4.8 ± 2.1% in data set [1] (0.5 mM); 18.0 ± 7.9% in data set [1] (1 mM); 34.6 ± 7.1% in data set [1] (2 mM, listed as 503); 35% in data set [1] (2 mM, listed as MMA503). The “% Hb-O2 affinity (P50 shift vs DMSO control)” value in data set [2] (0.5 mM) is given as 8.0 ± 1.1%; in data set [2] (1 mM), 20.0 ± 2.5%; in data set [2] (2 mM, listed as 503), 37.1 ± 2.5%; in data set [2] (2 mM, listed as MMA503) it was 37%.
Regarding `O=Cc1ccc(N2CCC(O)CC2)o1` [MMA-504, 5-(4-hydroxypiperidin-1-yl)furan-2-carbaldehyde], the “% Hb-modification (adduct formation)” value in data set [1] (0.5 mM) was 0.0 ± 0.0%; in data set [1] (1 mM), 0.0 ± 1.0%; in data set [1] (2 mM, listed as 504) it was 0.4 ± 0.8%; in data set [1] (2 mM, listed as MMA504) it was under 1%. Moreover, the “% Hb-O2 affinity (P50 shift vs DMSO control)” value was found to be 4.4 ± 5.1% in data set [2] (0.5 mM); 5.3 ± 1.5% in data set [2] (1 mM); 2.7 ± 1.2% in data set [2] (2 mM, listed as 504); 3% in data set [2] (2 mM, listed as MMA504). In data set [3], the inhibition at 2000 µM is 27%.
Turning to `N#Cc1ccc(C=O)o1` [MMA-505, 5-formylfuran-2-carbonitrile], the “% Hb-modification (adduct formation)” value worked out at 4.2 ± 1.6% in data set [1] (0.5 mM); 10.4 ± 2.6% in data set [1] (1 mM); 26.7 ± 6.0% in data set [1] (2 mM, listed as 505); 27% in data set [1] (2 mM, listed as MMA505). Also, the “% Hb-O2 affinity (P50 shift vs DMSO control)” value in data set [2] (0.5 mM) worked out at 5.5 ± 1.2%; in data set [2] (1 mM), 14.6 ± 2.1%; in data set [2] (2 mM, listed as 505) it was 32.0 ± 3.0%; in data set [2] (2 mM, listed as MMA505), 40%. Moreover, in data set [4] (at 1 hour), the “%P50 shift” value amounted to 11%. In addition, the “duration of effect on Hb oxygen affinity” value in data set [4] (time course 0-8 hrs) is “completely losing activity after 3 hours”. In addition, the “antisickling activity relative to 5-HMF” value in data set [3] is recorded as about 2.5 fold. Also, the inhibition at 2000 µM in data set [3] is 55%.
For `O=Cc1ccc(C2CCCCO2)o1` (stereo not drawn) [MMA-509], the “% Hb-modification (adduct formation)” value in data set [1] (0.5 mM) is reported as 16.2 ± 0.0%; in data set [1] (1 mM), 27.6 ± 3.6%; in data set [1] (2 mM, listed as 509) it was 53.3 ± 3.9%; in data set [1] (2 mM, listed as MMA509), 53%. Also, the “% Hb-O2 affinity (P50 shift vs DMSO control)” value in data set [2] (0.5 mM) amounted to 16.3 ± 1.5%; in data set [2] (1 mM), 34.5 ± 14.4%; in data set [2] (2 mM, listed as 509) it was 58.5 ± 15.3%; in data set [2] (2 mM, listed as MMA509), 59%. For the same compound, in data set [4] (at 1.5 hours), the “%P50 shift” value was found to be 60%. Moreover, the “inhibition of liver CYP isozymes” value in data set [5] was “no inhibition”.

Broadly, the inhibition is how much of the control response was suppressed.
